{
  "source": "patent US20230324400A1",
  "about": "“MULTIPLEXED PROTEOMICS AND PHOSPHOPROTEOMICS” (The General Hospital Corporation, priority 2015, published 2023)",
  "type_in_all_cases": "cell-based",
  "key": {"[1]": {"tested_on": "H3122 cell line (NSCLC, EML4-ALK fusion)", "test": "Ceritinib sensitivity (IC50) of parental H3122 cell line", "settings": "Homo sapiens, NCI-H3122; ALK-positive H3122 parental cell line", "procedure": "(§1) In the particular study reported here, resistance to the small molecule ALK inhibitor Ceritinib was studied. The patient-derived cell line H3122 is a NSCLC line with an EML4-ALK fusion, and it is sensitive to Ceritinib. To simulate the clinical development of therapeutic resistance following initial treatment, this cell line was cultured over a period of 6 months with low but increasing doses of Ceritinib. […] These clones were expanded and comprise the cell lines LDKR1-4.\n(§2) FIG. 5 is a schematic diagram showing the development of the cell lines. The ALK-positive H3122 cell line, which is sensitive to the ALK inhibitor Ceritinib (ICso=53 nM), was treated with escalating doses of Ceritinib over a period 6 months. Resistant clones LDKR1-4 were obtained with ICso values in a range from 1494 nM to 3897 nM."}, "[2]": {"tested_on": "LDKR1-4 cell lines (Ceritinib-resistant clones of H3122)", "test": "Ceritinib sensitivity (IC50) of resistant clones LDKR1-4", "procedure": "as §1, §2"}, "ALK [3]": {"target": "T1, ALK (Homo sapiens, UniProt Q9UM73)", "T1 sequence (Q9UM73 with tags, fused parts or gaps)": "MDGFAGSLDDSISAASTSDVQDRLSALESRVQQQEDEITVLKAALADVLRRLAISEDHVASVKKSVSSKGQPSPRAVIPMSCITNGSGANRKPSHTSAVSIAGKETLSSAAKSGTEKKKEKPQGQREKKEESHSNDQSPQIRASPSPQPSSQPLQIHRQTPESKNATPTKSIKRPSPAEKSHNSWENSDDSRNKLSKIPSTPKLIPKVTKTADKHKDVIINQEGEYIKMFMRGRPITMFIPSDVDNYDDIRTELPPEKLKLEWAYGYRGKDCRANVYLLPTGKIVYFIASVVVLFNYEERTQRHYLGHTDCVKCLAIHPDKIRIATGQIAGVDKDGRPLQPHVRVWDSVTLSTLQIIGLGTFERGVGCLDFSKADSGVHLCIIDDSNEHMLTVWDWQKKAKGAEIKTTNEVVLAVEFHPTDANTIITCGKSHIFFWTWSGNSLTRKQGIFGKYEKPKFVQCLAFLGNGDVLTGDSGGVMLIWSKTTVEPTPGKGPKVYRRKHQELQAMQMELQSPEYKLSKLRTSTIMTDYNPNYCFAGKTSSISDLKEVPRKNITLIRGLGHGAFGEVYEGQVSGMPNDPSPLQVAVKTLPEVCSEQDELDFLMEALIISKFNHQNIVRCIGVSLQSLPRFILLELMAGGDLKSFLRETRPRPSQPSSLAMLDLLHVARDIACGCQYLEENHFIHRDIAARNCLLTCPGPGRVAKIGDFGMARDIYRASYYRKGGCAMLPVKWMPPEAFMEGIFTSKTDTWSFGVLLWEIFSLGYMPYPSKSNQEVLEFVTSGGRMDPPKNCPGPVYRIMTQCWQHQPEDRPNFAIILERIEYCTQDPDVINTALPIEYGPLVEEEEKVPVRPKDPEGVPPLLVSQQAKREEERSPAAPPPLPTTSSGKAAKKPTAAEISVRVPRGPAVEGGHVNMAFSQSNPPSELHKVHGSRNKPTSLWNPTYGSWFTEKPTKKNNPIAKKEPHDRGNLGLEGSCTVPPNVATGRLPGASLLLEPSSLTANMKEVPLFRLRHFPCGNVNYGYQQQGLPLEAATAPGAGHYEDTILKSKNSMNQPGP", "test": "Phosphoproteomic analysis of ALK phosphorylation after Ceritinib treatment, parental H3122", "settings": "300 nM Ceritinib, 24 hours", "procedure": "(§3) The H3122 parental and LDKR1-4 cell lines were each grown in culture with or without the addition of Ceritinib for 24 hours, and harvested cells were subsequently processed for both proteomic and phosphoproteomic analyses. Specifically, each of the cell lines was cultured in RPMI-1640 media supplemented with 10% FBS, 100 units/mL penicillin, and 100 μg/mL streptomycin. Cells were treated for 24 hours with 300 nM Ceritinib (also known as LDK378). Cells were collected, and the cell pellets were resuspended in mammalian lysis buffer and lysed by passage through a 21 gauge needle. The lysate was centrifuged at 15,000×g for 5 minutes at 4° C., and insoluble debris was discarded.\n(§4) The lysates were then prepared for mass spectrometry analysis. Samples were reduced with DTT, alkylated with iodoacetamide, and precipitated with methanol/chloroform. Protein was digested overnight at room temperature with endoproteinase Lys-C(obtained from Wako Chemicals, Richmond, VA) followed by digestion with sequencing-grade trypsin (obtained from Promega Corp., Madison, WI) for 6 hours at 37° C. Samples were quenched with 1% TFA and desalted using Sep-Pak C18 (SPE) cartridges (obtained from Waters Corp., Milford, MA). The peptide concentration of each sample was determined using a BCA assay. […]"}, "ALK [4]": {"target": "T1, ALK", "test": "Phosphoproteomic analysis of ALK activity after Ceritinib treatment, resistant cell lines", "settings": "LDKR1-4, 300 nM Ceritinib, 24 hours", "procedure": "as §3, §4"}},
  "data": [
    {"smiles": "Cc1cc(Nc2ncc(Cl)c(Nc3ccccc3S(=O)(=O)C(C)C)n2)c(OC(C)C)cc1C1CCNCC1", "note": "[Ceritinib]", "values": [
      {"measurement": "IC50", "setting": "[1]", "result": 53, "unit": "nM"},
      {"measurement": "IC50", "setting": "[2]; Homo sapiens, NCI-H3122, resistant clones LDKR1-4, obtained after 6 months of escalating doses of Ceritinib", "result": "1490 to 3900", "unit": "nM"},
      {"measurement": "IC50 of resistant clones relative to parental sensitive cell line", "setting": "[2]; four single resistant clones LDKR1-4 vs parental H3122", "result": "at least twenty times higher"},
      {"measurement": "ALK Thr 1506/Tyr 1507/Ser 1509 phosphorylation, ratio to parental cell line with no drug", "setting": "ALK [3]", "result": "decreasing fourfold upon drug treatment"},
      {"measurement": "ALK Tyr 1078 phosphorylation, ratio to parental cell line with no drug", "setting": "ALK [3]", "result": "decreased upon drug treatment"},
      {"measurement": "Inhibition of ALK activity in resistant cell lines", "setting": "ALK [4]", "result": "continued to be effective at inhibiting ALK activity in at least three of the four resistant cell lines"}
    ]}
  ]
}
